Where two headings read alike, the source gives them in different places.
Columns and labels:
Format in all cases: cell-based
human TLR8 = molecular target: T1, human TLR8 (Homo sapiens, UniProt Q9NR97); assay: TLR8 inhibition reporter assay (HEK-Blue cells, secreted embryonic alkaline phosphatase reporter); conditions: HEK-Blue cells overexpressing human TLR8, stimulated with R848 15.9 μM; read-out: TLR 8 IC50
T1 construct: host or cells: HEK-Blue cells (HEK293-derived reporter line)
T1 sequence (Q9NR97 27-1041): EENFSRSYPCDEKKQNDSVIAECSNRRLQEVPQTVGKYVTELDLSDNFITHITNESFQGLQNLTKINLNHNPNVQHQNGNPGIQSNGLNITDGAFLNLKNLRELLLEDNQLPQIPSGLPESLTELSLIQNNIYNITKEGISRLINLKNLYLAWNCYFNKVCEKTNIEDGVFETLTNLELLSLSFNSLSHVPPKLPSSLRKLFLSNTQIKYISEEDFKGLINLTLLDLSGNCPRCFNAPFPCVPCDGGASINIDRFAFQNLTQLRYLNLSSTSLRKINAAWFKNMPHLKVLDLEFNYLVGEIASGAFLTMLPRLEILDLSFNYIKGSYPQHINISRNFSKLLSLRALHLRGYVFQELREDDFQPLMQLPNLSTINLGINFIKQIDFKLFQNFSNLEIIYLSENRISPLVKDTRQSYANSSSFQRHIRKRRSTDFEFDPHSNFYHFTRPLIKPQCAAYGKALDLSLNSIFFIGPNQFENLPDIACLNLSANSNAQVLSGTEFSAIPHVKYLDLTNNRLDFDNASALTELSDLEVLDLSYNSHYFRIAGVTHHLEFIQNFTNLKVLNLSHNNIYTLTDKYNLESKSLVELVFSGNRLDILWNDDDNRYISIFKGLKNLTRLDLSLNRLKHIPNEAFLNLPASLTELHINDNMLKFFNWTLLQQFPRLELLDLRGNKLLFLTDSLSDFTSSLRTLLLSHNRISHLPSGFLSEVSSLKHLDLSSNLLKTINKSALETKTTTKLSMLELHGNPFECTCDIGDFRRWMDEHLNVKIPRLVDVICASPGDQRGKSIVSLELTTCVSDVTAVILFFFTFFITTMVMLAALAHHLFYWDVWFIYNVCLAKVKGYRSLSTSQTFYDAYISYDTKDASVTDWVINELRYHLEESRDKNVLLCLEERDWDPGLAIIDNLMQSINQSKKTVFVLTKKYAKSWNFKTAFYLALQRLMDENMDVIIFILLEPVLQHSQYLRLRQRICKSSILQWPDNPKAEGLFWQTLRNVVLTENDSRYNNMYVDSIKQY
Summary of the method: (§1)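 HEK-Blue cells expressing human TLR7, TLR8 or TLR9 with an NF-κB/AP-1-driven SEAP reporter were pretreated with compound (0.05 nM–50 μM final) for 30 min at room temperature. Agonists were gardiquimod 7.5 μM for TLR7, R848 15.9 μM for TLR8 and ODN2006 5 nM for TLR9. SEAP was read after 22 h at 37 °C, and inhibition was calculated relative to agonist-plus-DMSO and known-inhibitor controls.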

human TLR7 = molecular target: T2, human TLR7 (Homo sapiens, UniProt Q9NYK1); assay: TLR7 inhibition reporter assay (HEK-Blue cells, secreted embryonic alkaline phosphatase reporter); conditions: HEK-Blue cells overexpressing human TLR7, stimulated with gardiquimod 7.5 μM; read-out: TLR 7 IC50
T2 construct: host or cells: HEK-Blue cells (HEK293-derived reporter line)
T2 sequence (Q9NYK1 27-1049): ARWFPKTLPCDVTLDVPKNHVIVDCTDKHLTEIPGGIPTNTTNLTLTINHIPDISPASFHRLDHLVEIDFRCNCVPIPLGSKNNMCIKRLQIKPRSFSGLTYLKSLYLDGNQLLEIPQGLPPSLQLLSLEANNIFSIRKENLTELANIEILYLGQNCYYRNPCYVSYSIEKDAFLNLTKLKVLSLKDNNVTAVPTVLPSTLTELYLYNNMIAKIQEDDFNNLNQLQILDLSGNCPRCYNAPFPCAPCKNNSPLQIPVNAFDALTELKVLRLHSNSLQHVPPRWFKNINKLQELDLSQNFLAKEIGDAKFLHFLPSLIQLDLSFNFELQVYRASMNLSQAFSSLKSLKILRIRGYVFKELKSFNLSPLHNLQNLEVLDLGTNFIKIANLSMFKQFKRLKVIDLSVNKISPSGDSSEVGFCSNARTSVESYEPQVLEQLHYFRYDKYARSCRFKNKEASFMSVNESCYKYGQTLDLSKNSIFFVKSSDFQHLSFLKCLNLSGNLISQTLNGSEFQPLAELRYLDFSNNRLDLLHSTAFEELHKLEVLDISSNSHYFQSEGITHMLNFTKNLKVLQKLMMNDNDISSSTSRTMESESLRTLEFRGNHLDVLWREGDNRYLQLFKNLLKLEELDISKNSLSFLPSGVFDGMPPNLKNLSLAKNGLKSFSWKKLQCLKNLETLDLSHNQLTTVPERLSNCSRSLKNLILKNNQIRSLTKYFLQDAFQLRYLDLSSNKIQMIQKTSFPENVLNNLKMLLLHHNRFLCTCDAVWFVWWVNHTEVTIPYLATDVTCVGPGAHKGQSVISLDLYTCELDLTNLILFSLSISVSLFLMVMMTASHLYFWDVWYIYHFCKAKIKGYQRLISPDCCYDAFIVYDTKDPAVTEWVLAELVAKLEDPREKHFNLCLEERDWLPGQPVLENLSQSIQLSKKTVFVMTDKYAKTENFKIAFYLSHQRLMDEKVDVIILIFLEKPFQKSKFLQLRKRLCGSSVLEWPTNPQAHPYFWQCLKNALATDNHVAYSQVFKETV
Summary of the method: as §1

human TLR9 = molecular target: T3, human TLR9 (Homo sapiens, UniProt Q9NR96); assay: TLR9 inhibition reporter assay (HEK-Blue cells, secreted embryonic alkaline phosphatase reporter); conditions: HEK-Blue cells overexpressing human TLR9, stimulated with ODN2006 5 nM
T3 construct: host or cells: HEK-Blue cells (HEK293-derived reporter line)
T3 sequence (Q9NR96 26-1032): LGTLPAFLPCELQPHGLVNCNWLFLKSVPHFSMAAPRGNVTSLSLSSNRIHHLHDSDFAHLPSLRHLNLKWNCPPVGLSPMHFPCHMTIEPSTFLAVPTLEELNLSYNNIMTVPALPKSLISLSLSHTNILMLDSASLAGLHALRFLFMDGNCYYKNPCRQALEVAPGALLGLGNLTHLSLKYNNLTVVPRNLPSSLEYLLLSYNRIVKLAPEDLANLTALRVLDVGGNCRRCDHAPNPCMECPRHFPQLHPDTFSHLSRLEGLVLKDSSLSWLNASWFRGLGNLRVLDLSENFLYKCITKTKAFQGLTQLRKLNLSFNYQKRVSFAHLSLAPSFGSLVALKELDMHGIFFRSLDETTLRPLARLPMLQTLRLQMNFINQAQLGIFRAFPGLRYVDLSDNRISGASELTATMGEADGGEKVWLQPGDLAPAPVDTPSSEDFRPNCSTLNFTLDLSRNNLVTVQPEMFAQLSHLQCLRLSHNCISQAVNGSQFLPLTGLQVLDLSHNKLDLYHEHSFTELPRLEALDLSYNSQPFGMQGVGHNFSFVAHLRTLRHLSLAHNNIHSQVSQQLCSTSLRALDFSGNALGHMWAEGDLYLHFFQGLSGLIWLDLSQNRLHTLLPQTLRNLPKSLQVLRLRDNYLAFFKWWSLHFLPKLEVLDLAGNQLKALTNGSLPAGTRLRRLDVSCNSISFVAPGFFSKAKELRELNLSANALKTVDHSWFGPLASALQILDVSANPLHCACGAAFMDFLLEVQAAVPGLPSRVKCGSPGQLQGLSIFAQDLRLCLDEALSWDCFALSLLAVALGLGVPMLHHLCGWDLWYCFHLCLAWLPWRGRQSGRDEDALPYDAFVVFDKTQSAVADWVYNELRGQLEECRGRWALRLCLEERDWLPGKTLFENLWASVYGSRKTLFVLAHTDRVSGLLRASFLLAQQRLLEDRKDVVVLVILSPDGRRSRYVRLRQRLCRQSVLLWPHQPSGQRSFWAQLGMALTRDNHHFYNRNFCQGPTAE
Summary of the method: as §1

[1] = 22 hour incubation, reporter readout

SMILES	IC50 (human TLR8)	IC50 (human TLR7)	IC50 (human TLR9; [1])	IC50 (human TLR9; read-out: TLR 9 IC50)
COc1ccc(-c2nc3ccc(C4CCN(C5CCN(C6CC6)CC5)CC4)cc3[nH]2)cc1OC [Example 29, 6-(1′-cyclopropyl-[1,4′-bipiperidin]-4-yl)-2-(3,4-dimethoxyphenyl)-1H-benzo[d]imidazole]	> 50000 nM	6600 nM	110 nM	11.2 nM
COc1ccc(-c2nc3ccc(C4CCN(C5CCN(CC(C)C)CC5)CC4)cc3n2C(C)C)cc1OC [Example 30, 2-(3,4-dimethoxyphenyl)-6-(1′-isobutyl-[1,4′-bipiperidin]-4-yl)-1-isopropyl-1H-benzo[d]imidazole]	> 50000 nM	9800 nM	250 nM	254 nM
COc1ccc(-c2nc3ccc(C4CCN(C5CCN(C6CC6)CC5)CC4)cc3n2C(C)C)cc1OC [Example 31, 6-(1′-cyclopropyl-[1,4′-bipiperidin]-4-yl)-2-(3,4-dimethoxyphenyl)-1-isopropyl-1H-benzo[d]imidazole]	> 50000 nM	> 50000 nM	750 nM	749 nM
COc1ccc(-c2nc3ccc(C4CCN(C5CCN(CC(C)C)CC5)CC4)cc3n2CC(F)F)cc1OC [Example 32, 1-(2,2-difluoroethyl)-2-(3,4-dimethoxyphenyl)-6-(1′-isobutyl-[1,4′-bipiperidin]-4-yl)-1H-benzo[d]imidazole]	> 50000 nM	5700 nM	210 nM	212 nM
COc1ccc(-c2nc3ccc(C4CCN(C5CCN(C6CC6)CC5)CC4)cc3n2CC(F)F)cc1OC [Example 33, 6-(1′-cyclopropyl-[1,4′-bipiperidin]-4-yl)-1-(2,2-difluoroethyl)-2-(3,4-dimethoxyphenyl)-1H-benzo[d]imidazole]	35000 nM	8100 nM	680 nM	681 nM
COc1ccc(-c2nc3cc(C4CCN(C5CCN(CC(C)C)CC5)CC4)ccc3n2C)cc1OC [Example 34, 2-(3,4-dimethoxyphenyl)-5-(1′-isobutyl-[1,4′-bipiperidin]-4-yl)-1-methyl-1H-benzo[d]imidazole]	> 50000 nM	16000 nM	170 nM	173 nM
COc1ccc(-c2nc3cc(C4CCN(C5CCN(CC(C)C)CC5)CC4)ccc3n2C(C)C)cc1OC [Example 36, 2-(3,4-dimethoxyphenyl)-5-(1′-isobutyl-[1,4′-bipiperidin]-4-yl)-1-isopropyl-1H-benzo[d]imidazole]	4600 nM	6600 nM	360 nM	357 nM

Second part, the compound after the results:

IC50 (human TLR8)	IC50 (human TLR7)	IC50 (human TLR9; [1])	IC50 (human TLR9; read-out: TLR 9 IC50)	SMILES
> 50000 nM	7500 nM	390 nM	388 nM	COc1ccc(-c2nc3cc(C4CCN(C5CCN(C6CC6)CC5)CC4)ccc3n2C(C)C)cc1OC [Example 37, 5-(1′-cyclopropyl-[1,4′-bipiperidin]-4-yl)-2-(3,4-dimethoxyphenyl)-1-isopropyl-1H-benzo[d]imidazole]
> 50000 nM	3400 nM	210 nM	208 nM	COc1ccc(-c2nc3cc(C4CCN(C5CCN(CC(C)C)CC5)CC4)ccc3n2CC(F)F)cc1OC [Example 38, 1-(2,2-difluoroethyl)-2-(3,4-dimethoxyphenyl)-5-(1′-isobutyl-[1,4′-bipiperidin]-4-yl)-1H-benzo[d]imidazole]
30000 nM	6400 nM	590 nM	590 nM	COc1ccc(-c2nc3cc(C4CCN(C5CCN(C6CC6)CC5)CC4)ccc3n2CC(F)F)cc1OC [Example 39, 5-(1′-cyclopropyl-[1,4′-bipiperidin]-4-yl)-1-(2,2-difluoroethyl)-2-(3,4-dimethoxyphenyl)-1H-benzo[d]imidazole]
46000 nM	2300 nM	150 nM	149 nM	CCn1c(-c2ccc(OC)c(OC)c2)nc2ccc(C3CCN(C4CCN(CC(C)C)CC4)CC3)cc21 [Example 40, 2-(3,4-dimethoxyphenyl)-1-ethyl-6-(1′-isobutyl-[1,4′-bipiperidin]-4-yl)-1H-benzo[d]imidazole]
